Measured values from the supplement of paper PMC13207355.

How the values were obtained:
Details in all cases: exposure time: 72 h
E34 [1] = patient-derived glioblastoma stem cells of proneural subtype; assay: surviving fraction (nuclei count normalised to DMSO); higher = more cells surviving (less toxic)
E57 [2] = patient-derived glioblastoma stem cells of mesenchymal subtype; assay: as above
E31 [3] = patient-derived glioblastoma stem cells of proneural subtype; assay: as above
E28 [4] = patient-derived glioblastoma stem cells of classical subtype; assay: as above
E21 [5] = patient-derived glioblastoma stem cells of mesenchymal subtype; assay: as above
FT3469 [6] = normal neural stem cell line; assay: as above
E13 [7] = patient-derived glioblastoma stem cells of classical subtype; assay: as above
E34 [8] = assay: phenotypic distance (Euclidean, principal components) from DMSO controls (arbitrary units); higher = stronger morphological change
E57 [9] = assay: as above
E31 [10] = assay: as above
E28 [11] = assay: as above
E21 [12] = assay: as above
FT3469 [13] = assay: as above
E13 [14] = assay: as above
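For phenotypic distance (Euclidean, principal components) from DMSO controls in this document: cell Painting imaging in 384-well plates, CellProfiler features reduced to at least 20 principal components, Euclidean distance versus same-plate DMSO vehicle wells (0.1% v/v), median over six images per well.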
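For surviving fraction (nuclei count normalised to DMSO) in this document: nuclei counted by high-content imaging of Hoechst-stained cells in laminin-coated 384-well plates, relative to 0.1% DMSO vehicle wells, with staurosporine as cell-death control.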

CCCCCCNC(=O)n1cc(F)c(=O)[nH]c1=O [Carmofur]
Details | phenotypic distance | surviving fraction
E13 [7], 4.1 nM | – | 0.99
E13 [7], 12.3 nM | – | 1.04
E13 [7], 37 nM | – | 0.909
E13 [7], 111.1 nM | – | 0.986
E13 [7], 333.3 nM | – | 0.963
E13 [7], 1000 nM | – | 1.05
E13 [7], 3000 nM | – | 0.877
E13 [14], 4.1 nM | 0.618 | –
E13 [14], 12.3 nM | 0.582 | –
E13 [14], 37 nM | 0.585 | –
E13 [14], 111.1 nM | 0.446 | –
E13 [14], 333.3 nM | 0.744 | –
E13 [14], 1000 nM | 0.529 | –
E13 [14], 3000 nM | 0.786 | –
E21 [5], 4.1 nM | – | 0.952
E21 [5], 12.3 nM | – | 0.91
E21 [5], 37 nM | – | 0.9
E21 [5], 111.1 nM | – | 0.957
E21 [5], 333.3 nM | – | 0.927
E21 [5], 1000 nM | – | 0.955
E21 [5], 3000 nM | – | 0.877
E21 [12], 4.1 nM | 0.484 | –
E21 [12], 12.3 nM | 0.616 | –
E21 [12], 37 nM | 0.756 | –
E21 [12], 111.1 nM | 0.906 | –
E21 [12], 333.3 nM | 0.649 | –
E21 [12], 1000 nM | 0.744 | –
E21 [12], 3000 nM | 1.09 | –
E28 [4], 4.1 nM | – | 1.02
E28 [4], 12.3 nM | – | 1.19
E28 [4], 37 nM | – | 0.916
E28 [4], 111.1 nM | – | 0.949
E28 [4], 333.3 nM | – | 1.1
E28 [4], 1000 nM | – | 1.26
E28 [4], 3000 nM | – | 0.731
E28 [11], 4.1 nM | 0.928 | –
E28 [11], 12.3 nM | 1.13 | –
E28 [11], 37 nM | 1.26 | –
E28 [11], 111.1 nM | 0.901 | –
E28 [11], 333.3 nM | 0.775 | –
E28 [11], 1000 nM | 1.21 | –
E28 [11], 3000 nM | 1.55 | –
E31 [3], 4.1 nM | – | 0.889
E31 [3], 12.3 nM | – | 0.903
E31 [3], 37 nM | – | 0.826
E31 [3], 111.1 nM | – | 0.961
E31 [3], 333.3 nM | – | 0.894
E31 [3], 1000 nM | – | 1.07
E31 [3], 3000 nM | – | 0.875
E31 [10], 4.1 nM | 0.818 | –
E31 [10], 12.3 nM | 0.955 | –
E31 [10], 37 nM | 1.02 | –
E31 [10], 111.1 nM | 0.782 | –
E31 [10], 333.3 nM | 0.838 | –
E31 [10], 1000 nM | 0.811 | –
E31 [10], 3000 nM | 0.874 | –
E34 [1], 4.1 nM | – | 0.974
E34 [1], 12.3 nM | – | 0.829
E34 [1], 37 nM | – | 0.841
E34 [1], 111.1 nM | – | 0.884
E34 [1], 333.3 nM | – | 0.928
E34 [1], 1000 nM | – | 1
E34 [1], 3000 nM | – | 0.889
E34 [8], 4.1 nM | 3.48 | –
E34 [8], 12.3 nM | 1.19 | –
E34 [8], 37 nM | 0.943 | –
E34 [8], 111.1 nM | 1.13 | –
E34 [8], 333.3 nM | 0.621 | –
E34 [8], 1000 nM | 0.627 | –
E34 [8], 3000 nM | 0.693 | –
E57 [2], 4.1 nM | – | 0.882
E57 [2], 12.3 nM | – | 0.903
E57 [2], 37 nM | – | 0.919
E57 [2], 111.1 nM | – | 0.922
E57 [2], 333.3 nM | – | 1.02
E57 [2], 1000 nM | – | 0.954
E57 [2], 3000 nM | – | 0.85
E57 [9], 4.1 nM | 0.989 | –
E57 [9], 12.3 nM | 0.918 | –
E57 [9], 37 nM | 0.681 | –
E57 [9], 111.1 nM | 0.66 | –
E57 [9], 333.3 nM | 0.538 | –
E57 [9], 1000 nM | 0.74 | –
E57 [9], 3000 nM | 1.04 | –
FT3469 [6], 4.1 nM | – | 0.763
FT3469 [6], 12.3 nM | – | 0.995
FT3469 [6], 37 nM | – | 0.811
FT3469 [6], 111.1 nM | – | 0.832
FT3469 [6], 333.3 nM | – | 0.955
FT3469 [6], 1000 nM | – | 0.915
FT3469 [6], 3000 nM | – | 0.649
FT3469 [13], 4.1 nM | 0.889 | –
FT3469 [13], 12.3 nM | 2.05 | –
FT3469 [13], 37 nM | 1.22 | –
FT3469 [13], 111.1 nM | 3.24 | –
FT3469 [13], 333.3 nM | 0.832 | –
FT3469 [13], 1000 nM | 0.844 | –
FT3469 [13], 3000 nM | 1.47 | –
